Data from PubChem BioAssay (NCI).
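Grown in 96-well plates, cells were treated for 48 hours with each compound at five concentrations. Insufficient inhibition: endpoint recorded as highest concentration tested. Definition used: TGI = concentration required for complete inhibition of growth.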

Experiments:
Experiment in all cases: NCI-60 cell line screen, 48 h
OVCAR-8 ovarian = system: OVCAR-8 ovarian
COLO 205 colon = system: COLO 205 colon
HL-60(TB) leukemia = system: HL-60(TB) leukemia
OVCAR-3 ovarian = system: OVCAR-3 ovarian
U251 CNS = system: U251 CNS
SR leukemia = system: SR leukemia
XF 498 CNS = system: XF 498 CNS
HOP-62 NSCLC = system: HOP-62 NSCLC
SK-MEL-5 melanoma = system: SK-MEL-5 melanoma
SF-539 CNS = system: SF-539 CNS
IGROV1 ovarian = system: IGROV1 ovarian
786-0 renal = system: 786-0 renal
EKVX NSCLC = system: EKVX NSCLC
ACHN renal = system: ACHN renal
UACC-257 melanoma = system: UACC-257 melanoma
DLD-1 colon = system: DLD-1 colon
RXF 393 renal = system: RXF 393 renal
HOP-92 NSCLC = system: HOP-92 NSCLC
SK-OV-3 ovarian = system: SK-OV-3 ovarian
M19-MEL melanoma = system: M19-MEL melanoma
DMS 273 small cell lung = system: DMS 273 small cell lung
NCI-H460 lung = system: NCI-H460 lung
KM20L2 colon = system: KM20L2 colon
SF-295 CNS = system: SF-295 CNS
K-562 leukemia = system: K-562 leukemia
LXFL 529 NSCLC = system: LXFL 529 NSCLC
MOLT-4 leukemia = system: MOLT-4 leukemia
DMS 114 small cell lung = system: DMS 114 small cell lung
CCRF-CEM leukemia = system: CCRF-CEM leukemia
NCI-H23 lung = system: NCI-H23 lung
SK-MEL-28 melanoma = system: SK-MEL-28 melanoma
SW-620 colon = system: SW-620 colon
SNB-78 CNS = system: SNB-78 CNS
RPMI-8226 leukemia = system: RPMI-8226 leukemia
A549 NSCLC = system: A549 NSCLC
OVCAR-4 ovarian = system: OVCAR-4 ovarian
TK-10 renal = system: TK-10 renal
M14 melanoma = system: M14 melanoma
A498 renal = system: A498 renal
HCC-2998 colon = system: HCC-2998 colon
LOX IMVI melanoma = system: LOX IMVI melanoma
KM12 colon = system: KM12 colon
SF-268 CNS = system: SF-268 CNS
HCT-15 colon = system: HCT-15 colon
UO-31 renal = system: UO-31 renal
HCT-116 colon = system: HCT-116 colon
SK-MEL-2 melanoma = system: SK-MEL-2 melanoma
SN12C renal = system: SN12C renal
SNB-19 CNS = system: SNB-19 CNS
CAKI-1 renal = system: CAKI-1 renal
UACC-62 melanoma = system: UACC-62 melanoma
SNB-75 CNS = system: SNB-75 CNS
HT29 colon = system: HT29 colon
NCI-H226 lung = system: NCI-H226 lung
NCI-H522 lung = system: NCI-H522 lung
MALME-3M melanoma = system: MALME-3M melanoma
HOP-18 NSCLC = system: HOP-18 NSCLC
RXF-631 renal = system: RXF-631 renal
OVCAR-5 ovarian = system: OVCAR-5 ovarian

`c1ccc(SCCCC(Sc2ccccc2)Sc2ccccc2)cc1` showed a TGI (OVCAR-8 ovarian) greater than 100 µM, a TGI (COLO 205 colon) greater than 100 µM and a TGI (HL-60(TB) leukemia) greater than 100 µM. It also gave a TGI (OVCAR-3 ovarian) greater than 100 µM, a TGI (U251 CNS) greater than 100 µM and a TGI (SR leukemia) greater than 100 µM. For the same compound, the TGI (XF 498 CNS) was greater than 100 µM, the TGI (HOP-62 NSCLC) was greater than 100 µM and the TGI (SK-MEL-5 melanoma) was greater than 100 µM. For the same compound, the TGI (SF-539 CNS) was greater than 100 µM, the TGI (IGROV1 ovarian) was greater than 100 µM and the TGI (786-0 renal) was greater than 100 µM. It also gave a TGI (EKVX NSCLC) greater than 100 µM, a TGI (ACHN renal) greater than 100 µM and a TGI (UACC-257 melanoma) greater than 100 µM. For the same compound, the TGI (DLD-1 colon) was greater than 100 µM, the TGI (RXF 393 renal) was greater than 100 µM and the TGI (HOP-92 NSCLC) was greater than 100 µM. It also gave a TGI (SK-OV-3 ovarian) greater than 100 µM, a TGI (M19-MEL melanoma) greater than 100 µM and a TGI (DMS 273 small cell lung) greater than 100 µM. It also gave a TGI (NCI-H460 lung) greater than 100 µM, a TGI (KM20L2 colon) greater than 100 µM and a TGI (SF-295 CNS) greater than 100 µM. For the same compound, the TGI (K-562 leukemia) was greater than 100 µM, the TGI (LXFL 529 NSCLC) was greater than 100 µM and the TGI (MOLT-4 leukemia) was greater than 100 µM. The TGI (DMS 114 small cell lung) was greater than 100 µM, the TGI (CCRF-CEM leukemia) was greater than 100 µM and the TGI (NCI-H23 lung) was greater than 100 µM. It also gave a TGI (SK-MEL-28 melanoma) greater than 100 µM, a TGI (SW-620 colon) greater than 100 µM and a TGI (SNB-78 CNS) greater than 100 µM. For the same compound, the TGI (RPMI-8226 leukemia) was greater than 100 µM, the TGI (A549 NSCLC) was greater than 100 µM and the TGI (OVCAR-4 ovarian) was greater than 100 µM. It also gave a TGI (TK-10 renal) greater than 100 µM, a TGI (M14 melanoma) greater than 100 µM and a TGI (A498 renal) greater than 100 µM. It also gave a TGI (HCC-2998 colon) greater than 100 µM, a TGI (LOX IMVI melanoma) greater than 100 µM and a TGI (KM12 colon) greater than 100 µM. The TGI (SF-268 CNS) was greater than 100 µM, the TGI (HCT-15 colon) was greater than 100 µM and the TGI (UO-31 renal) was greater than 100 µM. It also gave a TGI (HCT-116 colon) greater than 100 µM, a TGI (SK-MEL-2 melanoma) greater than 100 µM and a TGI (SN12C renal) greater than 100 µM. The TGI (SNB-19 CNS) was greater than 100 µM, the TGI (CAKI-1 renal) was greater than 100 µM and the TGI (UACC-62 melanoma) was greater than 100 µM. It also gave a TGI (SNB-75 CNS) greater than 100 µM.
`COc1ccc2cccc(C(=N)c3ccc(C)c4c3CCC4)c2c1` gave a TGI (OVCAR-8 ovarian) of 24 µM, a TGI (COLO 205 colon) of 25.9 µM and a TGI (HL-60(TB) leukemia) of 9.12 µM. It also gave a TGI (OVCAR-3 ovarian) of 17.6 µM, a TGI (U251 CNS) of 21.4 µM and a TGI (SR leukemia) of 9.03 µM. For the same compound, the TGI (HT29 colon) was 15 µM, the TGI (HOP-62 NSCLC) was 20 µM and the TGI (SK-MEL-5 melanoma) was 14.8 µM. The TGI (IGROV1 ovarian) was 19.2 µM, the TGI (NCI-H226 lung) was 26.9 µM and the TGI (786-0 renal) was 21.9 µM. It also gave a TGI (EKVX NSCLC) of 30.1 µM, a TGI (ACHN renal) of 21.7 µM and a TGI (UACC-257 melanoma) of 18.2 µM. It also gave a TGI (RXF 393 renal) of 26.3 µM, a TGI (NCI-H522 lung) of 10.1 µM and a TGI (MALME-3M melanoma) of 18.1 µM. For the same compound, the TGI (SK-OV-3 ovarian) was 29.9 µM, the TGI (M19-MEL melanoma) was 21.5 µM and the TGI (DMS 273 small cell lung) was 21.2 µM. The TGI (NCI-H460 lung) was 16.7 µM, the TGI (KM20L2 colon) was 19.3 µM and the TGI (SF-295 CNS) was 17.7 µM. For the same compound, the TGI (K-562 leukemia) was 10.8 µM, the TGI (LXFL 529 NSCLC) was 16.5 µM and the TGI (MOLT-4 leukemia) was 26.1 µM. It also gave a TGI (DMS 114 small cell lung) of 19.9 µM, a TGI (CCRF-CEM leukemia) of 26.6 µM and a TGI (HOP-18 NSCLC) of 15.5 µM. The TGI (NCI-H23 lung) was 19.6 µM, the TGI (SK-MEL-28 melanoma) was 26.9 µM and the TGI (SW-620 colon) was 18.7 µM. For the same compound, the TGI (A549 NSCLC) was 26.8 µM, the TGI (OVCAR-4 ovarian) was 24.9 µM and the TGI (RXF-631 renal) was 4.37 µM. The TGI (TK-10 renal) was 24.2 µM, the TGI (M14 melanoma) was 18.6 µM and the TGI (A498 renal) was 5.87 µM. For the same compound, the TGI (HCC-2998 colon) was 23.1 µM, the TGI (LOX IMVI melanoma) was 25.5 µM and the TGI (KM12 colon) was 22.9 µM. For the same compound, the TGI (SF-268 CNS) was 31.8 µM, the TGI (HCT-15 colon) was 20.6 µM and the TGI (UO-31 renal) was 16.2 µM. The TGI (OVCAR-5 ovarian) was 18.9 µM, the TGI (HCT-116 colon) was 15.9 µM and the TGI (SK-MEL-2 melanoma) was 24.4 µM. The TGI (SN12C renal) was 24.5 µM, the TGI (SNB-19 CNS) was 23.3 µM and the TGI (CAKI-1 renal) was 16.1 µM. For the same compound, the TGI (UACC-62 melanoma) was 15.8 µM and the TGI (SNB-75 CNS) was 27.2 µM.
For `O=C(CCCCCCCCC(=O)OCC1OC(n2cnc3c(=O)[nH]cnc32)C(O)C1O)OCC1OC(n2cnc3c(=O)[nH]cnc32)C(O)C1O` (stereo unspecified), the TGI (OVCAR-8 ovarian) was greater than 100 µM, the TGI (COLO 205 colon) was greater than 100 µM and the TGI (HL-60(TB) leukemia) was greater than 100 µM. The TGI (OVCAR-3 ovarian) was greater than 100 µM, the TGI (U251 CNS) was greater than 100 µM and the TGI (HT29 colon) was greater than 100 µM. It also gave a TGI (XF 498 CNS) greater than 100 µM, a TGI (HOP-62 NSCLC) greater than 100 µM and a TGI (SK-MEL-5 melanoma) greater than 100 µM. It also gave a TGI (SF-539 CNS) greater than 100 µM, a TGI (IGROV1 ovarian) greater than 100 µM and a TGI (NCI-H226 lung) greater than 100 µM. The TGI (786-0 renal) was greater than 100 µM, the TGI (EKVX NSCLC) was greater than 100 µM and the TGI (ACHN renal) was greater than 100 µM. The TGI (UACC-257 melanoma) was greater than 100 µM, the TGI (DLD-1 colon) was greater than 100 µM and the TGI (RXF 393 renal) was greater than 100 µM. It also gave a TGI (NCI-H522 lung) greater than 100 µM, a TGI (HOP-92 NSCLC) greater than 100 µM and a TGI (MALME-3M melanoma) greater than 100 µM. For the same compound, the TGI (SK-OV-3 ovarian) was greater than 100 µM, the TGI (M19-MEL melanoma) was greater than 100 µM and the TGI (DMS 273 small cell lung) was greater than 100 µM. The TGI (NCI-H460 lung) was greater than 100 µM, the TGI (KM20L2 colon) was greater than 100 µM and the TGI (SF-295 CNS) was greater than 100 µM. It also gave a TGI (K-562 leukemia) greater than 100 µM, a TGI (MOLT-4 leukemia) greater than 100 µM and a TGI (DMS 114 small cell lung) greater than 100 µM. It also gave a TGI (CCRF-CEM leukemia) greater than 100 µM, a TGI (HOP-18 NSCLC) greater than 100 µM and a TGI (NCI-H23 lung) greater than 100 µM. For the same compound, the TGI (SK-MEL-28 melanoma) was greater than 100 µM, the TGI (SW-620 colon) was greater than 100 µM and the TGI (SNB-78 CNS) was greater than 100 µM. The TGI (RPMI-8226 leukemia) was greater than 100 µM, the TGI (A549 NSCLC) was greater than 100 µM and the TGI (OVCAR-4 ovarian) was greater than 100 µM. For the same compound, the TGI (TK-10 renal) was greater than 100 µM, the TGI (M14 melanoma) was greater than 100 µM and the TGI (A498 renal) was greater than 100 µM. It also gave a TGI (HCC-2998 colon) greater than 100 µM, a TGI (LOX IMVI melanoma) greater than 100 µM and a TGI (KM12 colon) greater than 100 µM. The TGI (SF-268 CNS) was greater than 100 µM, the TGI (HCT-15 colon) was greater than 100 µM and the TGI (UO-31 renal) was greater than 100 µM. The TGI (OVCAR-5 ovarian) was greater than 100 µM, the TGI (HCT-116 colon) was greater than 100 µM and the TGI (SK-MEL-2 melanoma) was greater than 100 µM. For the same compound, the TGI (SN12C renal) was greater than 100 µM, the TGI (SNB-19 CNS) was greater than 100 µM and the TGI (CAKI-1 renal) was greater than 100 µM. For the same compound, the TGI (UACC-62 melanoma) was greater than 100 µM and the TGI (SNB-75 CNS) was greater than 100 µM.
